Experimental data: US8952192B2, “Phosphorylated and branched dihydroxy-pentane-dione (DPD) analogs as quorum sensing inhibitors in bacteria” (University of Maryland, College Park, priority 2011, dated 2015)
“Also recorded” adds a separate entry of the source.

Assays:
[1] = tested on: lsr expression in S. typhimurium (lsr-lacZ reporter strains); assay: QS response (lsr expression): AI-2 dependent β-galactosidase production, Miller assay; assay type: cell-based, Salmonella typhimurium
Protocol: The panel of C1-alkyl analogs was screened to identify QS modulators in the enteric bacteria E. coli and S. typhimurium. Transcription of the QS associated lsr operon, by using lsr-lacZ reporter strains (Table 2) which produce β-galactosidase in response to added AI-2 was monitored. In order to first establish if the analogs were agonists or antagonists in the QS circuit, the analogs were incubated with E. coli LW7 pLW11 and S. typhimurium MET715 (FIG. 19a-b) both of which are luxS^−. None of the analogs, except ethyl-DPD behaved as agonists for lsr expression. Previous studies investigating AI-2 antagonism in P. aeruginosa or in S. typhimurium were carried out using chemically synthesized AI-2 added to luxS^− cells. […] The same trends were obtained by adding a 1:1 ratio of enzymatically synthesized AI-2 and DPD analogs to the luxS^− strains E. coli LW7 pLW11 and S. typhimurium MET715 (FIG. 11a-b). None of the tested DPD analogs were bacteriocidal or bacteriostatic as the OD600 values of E. coli ZK126 pLW11 and S. typhimurium MET708 in the presence and absence of the analogs were similar (FIG. 10). Though the QS circuitry of the enteric organisms, E. coli and S. typhimurium are homologous they respond differently to the DPD analogs. The E. coli QS circuitry is susceptible to being silenced by a variety of DPD analogs of different shapes and sizes whereas in S. typhimurium, only a handful of DPD analogs could antagonize the action of AI-2. […] Isobutyl-DPD emerged as an effective and non-species-specific quencher; causing significant lsr expression knockdowns in both E. coli and S. typhimurium.
The QS response indicated by lsr gene expression was analyzed in pure culture studies by culturing E. coli LW7 pLW11, E. coli ZK126 pLW11 and S. typhimurium MET708, S. typhimurium MET715 overnight in LB medium supplemented with appropriate antibiotics as stated previously. These cells were then diluted into fresh LB medium (with antibiotics) and grown to an OD600 of 0.8-1.0 at 30° C., 250 rpm. Cells were then collected by centrifugation at 10,000×g for 10 minutes, and resuspended in 10 mM phosphate buffer. AI-2 (20 μM) and the respective analog (20 μM) were added to the E. coli or S. typhimurium suspension for 2 hours at 37° C. AI-2 dependent β-galactosidase production was quantified by the Miller assay.
The QS response indicated by lsr gene expression was analyzed in pure culture studies by culturing E. coli LW7 pLW11 and S. typhimurium MET715 overnight at 30° C. in LB medium supplemented with appropriate antibiotics as stated previously. These cells were then diluted into fresh LB medium (with antibiotics) and grown to an OD600 of 0.4-0.8 at 37° C., 250 rpm. Cells were then collected by centrifugation at 10,000×g for 10 min and resuspended in 10 mM phosphate buffer. AI-2 (20 μM) and the respective analog (20 μM) were added to the E. coli or S. typhimurium suspension for 2 h at 37° C. AI-2 dependent β-galactosidase production was quantified by the Miller assay.
The QS response indicated by lsr gene expression was analyzed in pure culture studies by culturing E. coli LW7 pLW11, E. coli ZK126 pLW11 and S. typhimurium MET708, S. typhimurium MET715 overnight in LB medium individually supplemented with appropriate antibiotics, as specified above. These cells were diluted into fresh LB medium (with antibiotics) and grown to an OD600 of 0.8-1.0 at 30° C., 250 rpm. Cells were collected by centrifugation at 10,000×g for 10 minutes, and resuspended in 10 mM phosphate buffer. AI-2 (20 μM) and the respective analog (20 μM) were added to the E. coli or S. typhimurium suspension for 2 hours at 37° C. AI-2 dependent β-galactosidase production was quantified by the Miller assay.

S. typhimurium MET708 = assay: Trispecies synthetic ecosystem (S. typhimurium, V. harveyi, E. coli): β-galactosidase activity; assay type: cell-based; details: trispecies co-culture, lacZ activity after 4 hours
Text: To investigate the effect of the DPD analogs in a mixed bacterial environment, a synthetic ecosystem composed of three different bacterial populations was assembled. Specifically, S. typhimurium MET708, V. harveyi BB170 and E. coli W3110 (pCT6), each luxS^+ (Table 2), and each producing their native AI-2 were co-cultured in the same tubes. By design, each species was selected so that a different reporter probe would indicate the specific bacterium's QS response: S. typhimurium (MET708) expresses β-galactosidase; V. harveyi (BB170) elicits bioluminescience; and E. coli (W331) are engineered to synthesize GFP. In this way, their responses can be differentiated and quantified in response to AI-2.
The S. typhimurium MET708, V. harveyi BB170 and E. coli W3110 pCT6 were each cultured separately overnight in LM medium supplemented with the appropriate antibiotic. […] The V. harveyi luminescence response was measured after 2.5 hours. The S. typhimurium lacZ (β-galactosidase) activity was measured after 4 hours. The E. coli response was determined after 8 hours, by fixing the cells with 1:1 cold 4% paraformaldehyde and using flow cytometric analysis. Samples were analyzed by flow cytometery (FACS Canto II, BD 394 Biosciences), with 20,000 gated events analyzed per sample.

[2] = tested on: lsr expression in E. coli (lsr-lacZ reporter strains); assay: QS response (lsr expression): AI-2 dependent β-galactosidase production, Miller assay; assay type: cell-based, Escherichia coli; details: E. coli ZK126 pLW11 LW8 (luxS+, lsrR−), 20 μM analog

Structure (SMILES) | effect on native lsr expression (QS response) ([1]; S. typhimurium MET708 (luxS+), cells produce their own AI-2) | decrease of lacZ expression ([1]; S. typhimurium MET715 (LuxS−), 20 μM AI-2 + 20 μM analog) | IC50 ([1]; concentration reducing lsr expression (β-galactosidase production) to 50% in the presence of 20 μM exogenously added synthetic DPD, read-out: IC50 of analog (nM) to inhibit QS in S. typhimurium) [nM] | decrease of S. typhimurium β-galactosidase activity (S. typhimurium MET708) [fold] | difference in lsr expression versus control in lsrR null mutant [2]
CC(C)CC(=O)C(=O)[C@@H](O)CO [Isobutyl-DPD, isobutyl-DPD] | significant knocked down; also recorded: significantly inhibited signaling | about 50% | 20000 | 4 | 
O=C(C(=O)C(O)CO)c1ccccc1 (centres unmarked) [Phenyl-DPD, Phenyl DPD] |  |  |  |  | exception
